Test results taken from patent US20150105252A1, “SUBSTITUTED PYRAZOLES AS HERBICIDES” (E I DU PONT DE NEMOURS AND COMPANY, priority 2013, published 2015).

Legend:
foxtail, giant [1] = test: Test A preemergence; type: in vivo, Setaria faberii; details: preemergence
Summary of the method: (§1)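 Growth medium: loam soil blended with sand. Preemergence treatment used a directed soil spray right after planting; postemergence treatment targeted seedlings at one to two leaves (2–10 cm height). Response was judged by eye relative to untreated plants about 10 days later on a 0–100 control scale.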

pigweed [2] = test: Test A preemergence; type: in vivo, Amaranthus retroflexus; details: preemergence, 125 g ai/ha, visual injury approx. 10 days after treatment
Summary of the method: as §1

crabgrass, large = test: Test A postemergence; type: in vivo, Digitaria sanguinalis; details: Postemergence
Summary of the method: as §1

corn = test: Test A postemergence; type: in vivo, Zea mays; details: Postemergence
Summary of the method: as §1

blackgrass [3] = test: Test C preemergence; type: in vivo, Alopecurus myosuroides; details: preemergence
Summary of the method: (§2)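 Seeds were sown in a loam soil–sand blend and sprayed preemergence with compounds formulated in a non-phytotoxic solvent mixture containing surfactant. Postemergence plants, grown in peat/vermiculite medium to 2–18 cm (1- to 4-leaf stage), received the same formulation. After 13 to 15 days in a greenhouse, injury was rated visually against controls (0 = no effect, 100 = complete control).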

galium = test: Test C preemergence; type: in vivo, Galium aparine
Summary of the method: as §2

johnsongrass = test: Test C preemergence; type: in vivo, Sorghum halepense
Summary of the method: as §2

pigweed [4] = test: Test C preemergence; type: in vivo, Amaranthus retroflexus
Summary of the method: as §2

blackgrass [5] = test: Test C postemergence; type: in vivo, Alopecurus myosuroides
Summary of the method: as §2

wheat = test: Test C postemergence; type: in vivo, Triticum aestivum; details: postemergence
Summary of the method: as §2

foxtail, giant [6] = test: Test C postemergence; type: in vivo, Setaria faberii
Summary of the method: as §2

pigweed [7] = test: Test C postemergence; type: in vivo, Amaranthus retroflexus; details: postemergence
Summary of the method: as §2

ragweed = test: Test C postemergence; type: in vivo, Ambrosia elation; details: postemergence
Summary of the method: as §2

soybean = test: Test C postemergence; type: in vivo, Glycine max; details: postemergence
Summary of the method: as §2

barnyardgrass = test: Test C postemergence; type: in vivo, Echinochloa crus-galli
Summary of the method: as §2

[8] = 125 g ai/ha, 0 to 100 scale, 0 no effect, 100 complete control
[9] = 500 g ai/ha, 0 to 100 scale (0 no effect, 100 complete control)
[10] = Preemergence, rate head not shown (block before 16 g ai/ha), scale 0 to 100
[11] = preemergence, 62 g ai/ha, scale 0 to 100 (0 no effect, 100 complete control), 13 to 15 days
[12] = preemergence, 125 g ai/ha, 13 to 15 days, scale 0 to 100, 0 = no effect, 100 = complete control
[13] = preemergence, 250 g ai/ha, scale 0 to 100, 0 is no effect, 100 is complete control
[14] = Postemergence, 31 g ai/ha, visually evaluated after 13 to 15 days
[15] = postemergence, 62 g ai/ha, scale 0 to 100
[16] = postemergence, 250 g ai/ha, scale 0 to 100 (0 no effect, 100 complete control)
[17] = postemergence, 125 g ai/ha, scale 0 to 100, 0 no effect, 100 complete control
[18] = 250 g ai/ha, scale 0 to 100 (0 no effect, 100 complete control)
[19] = 125 g ai/ha, scale 0 to 100, 0 no effect, 100 complete control

Structure (SMILES): CCc1cc(C(=O)NCC(F)(F)F)nn1Cc1ccnc(Br)c1 [Compound 224]
- Foxtail, Giant plant response rating (0 to 100 scale) (foxtail, giant [1]; 125 g ai/ha, visual injury approx. 10 days after treatment): 100
- Foxtail, Giant plant response rating (foxtail, giant [1]; 500 g ai/ha, visual injury after approx. 10 days, 0 to 100 scale (0 no effect, 100 complete control)): 100
- Pigweed plant response rating (0 to 100 scale) (pigweed [2]): 100
- Crabgrass, Large plant response rating (crabgrass, large; [8]): 90
- Crabgrass, Large plant response rating (crabgrass, large; [9]): 100
- Corn plant response rating (corn; [8]): 60
- Corn plant response rating (corn; [9]): 90
- Blackgrass plant response rating (blackgrass [3]; 31 g ai/ha, visual rating, scale 0 to 100 (0 no effect, 100 complete control), 13 to 15 days): 80
- Blackgrass plant response rating (blackgrass [3]; 62 g ai/ha, scale 0 to 100 (0 no effect, 100 complete control), 13 to 15 days): 100
- Plant response rating, Blackgrass (blackgrass [3]; 125 g ai/ha, 13 to 15 days, scale 0 to 100, 0 = no effect, 100 = complete control): 80
- Blackgrass plant response rating (blackgrass [3]; 250 g ai/ha, scale 0 to 100, 0 is no effect, 100 is complete control): 90
- Plant response rating, Galium (galium; [10]): 80
- Galium plant response rating (galium; [11]): 80
- Plant response rating, Galium (galium; [12]): 100
- Galium plant response rating (galium; [13]): 90
- Plant response rating, Johnsongrass (johnsongrass; [10]): 15
- Johnsongrass plant response rating (johnsongrass; [11]): 50
- Plant response rating, Johnsongrass (johnsongrass; [12]): 60
- Johnsongrass plant response rating (johnsongrass; [13]): 98
- Plant response rating, Pigweed (pigweed [4]; [10]): 100
- Pigweed plant response rating (pigweed [4]; [11]): 100
- Plant response rating, Pigweed (pigweed [4]; [12]): 100
- Pigweed plant response rating (pigweed [4]; [13]): 100
- Plant response rating (scale of 0 to 100 where 0 is no effect and 100 is complete control), Blackgrass (blackgrass [5]; [14]): 5
- Blackgrass plant response rating (blackgrass [5]; [15]): 5
- Plant response rating, Blackgrass (blackgrass [5]; [16]): 20
- Plant response rating, Blackgrass (blackgrass [5]; [17]): 5
- Plant response rating, Wheat (wheat; [18]): 5
- Wheat plant response rating (wheat; scale 0 to 100): 0
- Plant response rating (scale of 0 to 100 where 0 is no effect and 100 is complete control), Foxtail, Giant (foxtail, giant [6]; [14]): 5
- Foxtail, Giant plant response rating (foxtail, giant [6]; [15]): 5
- Plant response rating, Foxtail, Giant (foxtail, giant [6]; [16]): 5
- Plant response rating, Foxtail, Giant (foxtail, giant [6]; [17]): 5
- Pigweed plant response rating (pigweed [7]; 62 g ai/ha, scale 0 to 100): 50
- Plant response rating, Pigweed (pigweed [7]; [18]): 75
- Plant response rating, Pigweed (pigweed [7]; [19]): 50
- Plant response rating, Ragweed (ragweed; [18]): 35
- Plant response rating, Ragweed (ragweed; [19]): 10
- Plant response rating, Soybean (soybean; [18]): 60
- Soybean plant response rating (soybean; [19]): 70
- Plant response rating (scale of 0 to 100 where 0 is no effect and 100 is complete control), Barnyardgrass (barnyardgrass; [14]): 0
- Barnyardgrass plant response rating (barnyardgrass; [15]): 10
- Plant response rating, Barnyardgrass (barnyardgrass; [16]): 10
- Plant response rating, Barnyardgrass (barnyardgrass; [17]): 10
